Here are results for 35 molecules from ChEMBL document CHEMBL1135637, “Quantitative structure--activity relations for gammadelta T cell activation by phosphoantigens” (J Med Chem, 2002).

This experiment in a line: Effective concentration to activate gammadelta T cells. Type of experiment: functional, cell-based. Conditions: t-cell.

Take `CC(O)(CI)CCOP(=O)(O)OP(=O)(O)OP(=O)(O)OCCC(C)(O)CI` (stereo not given): a half-maximal response (EC50) required 8.66 µM.

For `O=C(O)C(COP(=O)(O)O)OP(=O)(O)O` (stereo not given), the EC50 is 1580 µM.

`CCC(=O)COP(=O)(O)OP(=O)(O)O`: a half-maximal response (EC50) required 44.7 µM.

In turn, `CC(OP(=O)(O)O)C(=O)O` (stereo not given) returned an EC50 of 1580 µM.

In turn, `CC(COP(=O)(O)OP(=O)(O)O)C(C)(O)CI` (stereo not given) displayed an EC50 of 7.07 µM.

In the case of `CC(O)(CO)CCOP(=O)(O)OP(=O)(O)O` (stereo not given), the EC50 worked out at 3.16 µM.

For `CCC(=O)CCOP(=O)(O)OP(=O)(O)O`, the EC50 is 31.6 µM.

Regarding `CC(=O)C(C)COP(=O)(O)OP(=O)(O)O` (stereo not given), the EC50 came to 31.6 µM.

`O=P(O)(O)OCCO` yielded an EC50 of 224 µM.

Molecule `CC(=O)CCCOP(=O)(O)OP(=O)(O)O` returned an EC50 of 31.6 µM. This EC50 lies about 7.1-fold lower than the previous one.

As for `CC(O)(CBr)CCOP(=O)(O)OP(=O)(O)OP(=O)(O)OCC(C)(O)CBr` (stereo not given), it took 14.1 µM to reach a half-maximal effect (EC50).

For the molecule `C/C=C\COP(=O)(O)O`, a half-maximal response (EC50) required 158 µM. This EC50 lies about 11-fold higher than the previous one.

The molecule `CC(C)=CCOP(=O)(O)O` gave an EC50 of 158 µM.

Regarding `C[C@@]1(CCOP(=O)(O)OP(=O)(O)O)CO1`, the EC50 stood at 0.4 µM.

`O=P(O)(O)O[C@@H]1OC[C@@H](O)[C@H](O)[C@H]1O` came in with an EC50 of 1580 µM. Compared with the last molecule, the EC50 is about 4000-fold higher.

The molecule `CCC(C)OP(=O)(O)O` (stereo not given) registered an EC50 of 2240 µM.

In the case of `O=P(O)(O)OCC(O)CO` (stereo not given), a half-maximal effect (EC50) was put at 1580 µM.

For the molecule `C=CCOP(=O)(O)O`, the EC50 was 158 µM.

Take `CC(=O)CCOP(=O)(O)OP(=O)(O)O`: the EC50 was 40 µM.

Take `NCCCC(O)(P(=O)(O)O)P(=O)(O)O` [ALENDRONIC ACID]: the EC50 came to 0.9 µM.

For the molecule `C=CCOP(=O)(O)OP(=O)(O)O` [ALLYL PYROPHOSPHATE], the EC50 was 3.16 µM.

In the case of `CC(O)(CBr)CCOP(=O)(O)OP(=O)(O)O` (stereo not given) [BROMOHYDRIN PYROPHOSPHATE], the EC50 amounted to 0.01 µM.

`CC(O)(CBr)CCOP(=O)(O)OP(=O)(O)OP(=O)(O)O` (stereo not given) [BROMOHYDRIN TRIPHOSPHATE] had an EC50 of 0.346 µM.

Take `CC(O)(CCl)CCOP(=O)(O)OP(=O)(O)O` (stereo not given) [CHLOROHYDRIN PYROPHOSPHATE]: the EC50 stood at 0.0707 µM.

In turn, `C/C=C\COP(=O)(O)OP(=O)(O)O` [CROTYL PYROPHOSPHATE] yielded an EC50 of 3.16 µM.

`CCOP(=O)(OCC)OP(=O)(OCC)OCC` [ETHYL PYROPHOSPHATE] displayed an EC50 of 3.16 µM. That is a single-digit micromolar value.

`CCCCCN(C)CCC(O)(P(=O)(O)O)P(=O)(O)O` [IBANDRONIC ACID] returned an EC50 of 1 µM. Against the preceding molecule, the EC50 is about 3.2-fold lower.

For `CC(O)(CI)CCOP(=O)(O)OP(=O)(O)O` (stereo not given) [IODOHYDRIN PYROPHOSPHATE], the EC50 turned out to be 0.0012 µM.

`CC(O)(CI)CCOP(=O)(O)OP(=O)(O)OP(=O)(O)O` (stereo not given) [IODOHYDRIN TRIPHOSPHATE]: the EC50 amounted to 0.224 µM. This EC50 lies about 190-fold higher than the previous one.

With `C=C(C)CCOP(=O)(O)O` [ISOPENTENYL PHOSPHATE], the EC50 amounted to 158 µM.

Consider `NCCC(O)(P(=O)(O)O)P(=O)(O)O` [PAMIDRONIC ACID], for which the response was half-maximal at 5.66 µM (EC50).

With `O=C(O)COP(=O)(O)O` [PHOSPHOGLYCOLIC ACID], it took 707 µM to reach a half-maximal effect (EC50).

Molecule `COP(=O)(O)O` [PHOSPHORIC ACID MONOMETHYL ESTER] showed an EC50 of 707 µM.

In turn, `CC(C)OP(=O)(O)O` [PHOSPHORYLISOPROPANE] registered an EC50 of 707 µM.

Molecule `CCCOP(=O)(O)O` [PROPYL PHOSPHATE] registered an EC50 of 707 µM.
